pIC50: −log10 of the molar value. Starred links: 1 amine or outer side, 2 acyl side, 3 side chain; linkers in the order of their positions; H or OH if unused. Non-standard residues stand in square brackets, D forms with d. Residues, ends and D or L forms follow the SMILES beside them. *: point of attachment. N(3,4-(MeO)2phenethyl)Gly = COc1ccc(CCNCC(=O)O)cc1OC; Phe(4-guanidino) = N=C(N)Nc1ccc(C[C@H](N)C(=O)O)cc1; X2 = O=C([C@H](CCCN(C1=NCCN1)C1=NCCN1)N[*:1])[*:2]; Gly(N-(CH2)3N-pyrrolidone) = O=C(O)CNCCCN1CCCC1=O; Orn(2-imidazolinyl) = N[C@@H](CCCNC1=NCCN1)C(=O)O; Phe(4-F) = N[C@@H](Cc1ccc(F)cc1)C(=O)O; X5 = CCN(CC)CCC[C@H](N[*:1])C(=O)[*:2]; 1Nal = N[C@@H](Cc1cccc2ccccc12)C(=O)O; Bta = N[C@@H](Cc1csc2ccccc12)C(=O)O; cisHyp = O=C(O)[C@@H]1C[C@H](O)CN1; Hyp = O=C(O)[C@@H]1C[C@@H](O)CN1; d(hLeu) = CC(C)CC[C@@H](N)C(=O)O; hArg = N=C(N)NCCCC[C@H](N)C(=O)O; β3hF = N[C@H](CC(=O)O)Cc1ccccc1; dCha = N[C@H](CC1CCCCC1)C(=O)O; Agb = N=C(N)NCC[C@H](N)C(=O)O; NMeS = CN[C@@H](CO)C(=O)O; hSer = N[C@@H](CCO)C(=O)O; NMeA = CN[C@@H](C)C(=O)O; Orn = NCCC[C@H](N)C(=O)O; Aze = O=C(O)[C@@H]1CCN1; NPrGly = CCCNCC(=O)O; Nme = COCCNCC(=O)O; Ms = CS(=O)(=O)*
target: T1, human C5aR(CD88) (Homo sapiens, UniProt P21730); test: Determination of the IC50 value in an enzyme release assay (functional assay, antagonistic activity); format: cell-based; settings: antagonistic activity; IC50 group in enzyme release assay, RBL cells expressing human C5aR(CD88); read-out: activity (group)
T1 construct: expressed in transfected cells; host or cells: rat basophilic leukemia cells (RBL)
T1 sequence (P21730 1-350): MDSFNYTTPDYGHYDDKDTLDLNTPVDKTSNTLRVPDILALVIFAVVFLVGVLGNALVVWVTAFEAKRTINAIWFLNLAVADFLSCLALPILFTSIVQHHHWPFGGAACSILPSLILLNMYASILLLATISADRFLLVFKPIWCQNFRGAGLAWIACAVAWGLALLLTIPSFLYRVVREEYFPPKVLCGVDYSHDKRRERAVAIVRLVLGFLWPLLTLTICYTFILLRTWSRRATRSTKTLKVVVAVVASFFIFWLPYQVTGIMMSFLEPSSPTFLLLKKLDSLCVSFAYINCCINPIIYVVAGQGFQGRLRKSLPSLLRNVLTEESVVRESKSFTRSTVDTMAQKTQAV

| pIC50 | Structure (SMILES) |
| --- | --- |
| 7.30 to 7.70 | CC(=O)N[C@@H](Cc1ccccc1)C(=O)N[C@@H](CCCNC1=NCCN1)C(=O)N1CC[C@H]1C(=O)N[C@H](CC1CCCCC1)C(=O)N[C@@H](Cc1csc2ccccc12)C(=O)N[C@@H](Cc1ccccc1)C(N)=O [Compound 224, Ac-Phe-Ffa-Aze-cha-Bta-Phe-NH2] (Ac-F[Orn(2-imidazolinyl)][Aze][dCha][Bta]F-NH2) |
| 7.70 to 8.00 | CC(=O)N[C@@H](Cc1ccccc1)C(=O)N[C@@H](CCCCNC(=N)N)C(=O)N1CC[C@H]1C(=O)N[C@H](CC1CCCCC1)C(=O)N[C@@H](Cc1csc2ccccc12)C(=O)N[C@@H](Cc1ccccc1)C(N)=O [Compound 229, Ac-Phe-Har-Aze-cha-Bta-Phe-NH2] (Ac-F[hArg][Aze][dCha][Bta]F-NH2) |
| 6.70 to 7.30 | CC(=O)N[C@@H](Cc1ccccc1)C(=O)N[C@@H](Cc1c[nH]cn1)C(=O)N1CCC[C@H]1C(=O)N[C@H](CC1CCCCC1)C(=O)N[C@@H](Cc1csc2ccccc12)C(=O)N[C@@H](Cc1ccccc1)C(N)=O [Compound 230, Ac-Phe-His-Pro-cha-Bta-Phe-NH2] (Ac-FHP[dCha][Bta]F-NH2) |
| 6.70 to 7.30 | CC(=O)N[C@@H](Cc1ccccc1)C(=O)N[C@@H](CCCN)C(=O)N1C[C@@H](O)C[C@H]1C(=O)N[C@H](CCC(C)C)C(=O)N[C@@H](Cc1ccc(F)cc1)C(=O)N[C@@H](Cc1ccccc1)C(N)=O [Compound 236, Ac-Phe-Orn-Chy-hle-Pff-Phe-NH2] (Ac-F[Orn][cisHyp][d(hLeu)][Phe(4-F)]F-NH2) |
| 6.70 to 7.30 | COCCN(CC(=O)N[C@H](CC1CCCCC1)C(=O)N[C@@H](Cc1csc2ccccc12)C(=O)N[C@@H](Cc1ccccc1)C(N)=O)C(=O)[C@H](CCCN)NC(=O)[C@H](Cc1ccccc1)NC(C)=O [Compound 238, Ac-Phe-Orn-G25-cha-Bta-Phe-NH2] (Ac-F[Orn][Nme][dCha][Bta]F-NH2) |
| 6.70 to 7.30 | CC(=O)N[C@@H](Cc1ccccc1)C(=O)N[C@@H](CCCN)C(=O)N(CCCN1CCCC1=O)CC(=O)N[C@H](CC1CCCCC1)C(=O)N[C@@H](Cc1csc2ccccc12)C(=O)N[C@@H](Cc1ccccc1)C(N)=O [Compound 241, Ac-Phe-Orn-G30-cha-Bta-Phe-NH2] (Ac-F[Orn][Gly(N-(CH2)3N-pyrrolidone)][dCha][Bta]F-NH2) |
| 6.70 to 7.30 | COc1ccc(CCN(CC(=O)N[C@H](CC2CCCCC2)C(=O)N[C@@H](Cc2csc3ccccc23)C(=O)N[C@@H](Cc2ccccc2)C(N)=O)C(=O)[C@H](CCCN)NC(=O)[C@H](Cc2ccccc2)NC(C)=O)cc1OC [Compound 242, Ac-Phe-Orn-G31-cha-Bta-Phe-NH2] (Ac-F[Orn][N(3,4-(MeO)2phenethyl)Gly][dCha][Bta]F-NH2) |
| 6.70 to 7.30 | CC(=O)N[C@@H](Cc1ccccc1)C(=O)N[C@@H](CCCN)C(=O)N1C[C@H](O)C[C@H]1C(=O)N[C@H](CCC(C)C)C(=O)N[C@@H](Cc1ccc(F)cc1)C(=O)N[C@@H](Cc1ccccc1)C(N)=O [Compound 245, Ac-Phe-Orn-Hyp-hle-Pff-Phe-NH2] (Ac-F[Orn][Hyp][d(hLeu)][Phe(4-F)]F-NH2) |
| 6.70 to 7.30 | CC(=O)N[C@@H](Cc1ccccc1)C(=O)N[C@@H](CCCN)C(=O)N(C)[C@@H](CO)C(=O)N[C@H](CC1CCCCC1)C(=O)N[C@@H](Cc1csc2ccccc12)C(=O)N[C@@H](Cc1ccccc1)C(N)=O [Compound 247, Ac-Phe-Orn-NMS-cha-Bta-Phe-NH2] (Ac-F[Orn][NMeS][dCha][Bta]F-NH2) |

The next lines start with the molecule.

| Structure (SMILES) | pIC50 |
| --- | --- |
| CC(=O)N[C@@H](Cc1ccccc1)C(=O)N[C@@H](CCCN(C1=NCCN1)C1=NCCN1)C(=O)N1CC[C@H]1C(=O)N[C@H](CC1CCCCC1)C(=O)N[C@@H](Cc1csc2ccccc12)C(=O)N[C@@H](Cc1ccccc1)C(N)=O [Compound 223, Ac-Phe-Fcp-Aze-cha-Bta-Phe-NH2] (Ac-F[X2][Aze][dCha][Bta]F-NH2) | 7.30 to 7.70 |
| CC(=O)N[C@@H](Cc1ccccc1)C(=O)N[C@@H](CCCNC1=NCCN1)C(=O)N1CCC[C@H]1C(=O)N[C@H](CC1CCCCC1)C(=O)N[C@@H](Cc1csc2ccccc12)C(=O)N[C@@H](Cc1ccccc1)C(N)=O [Compound 225, Ac-Phe-Ffa-Pro-cha-Bta-Phe-NH2] (Ac-F[Orn(2-imidazolinyl)]P[dCha][Bta]F-NH2) | 7.30 to 7.70 |
| CC(=O)N[C@@H](Cc1ccccc1)C(=O)N[C@@H](CCCNC1=NCCN1)C(=O)N1CCC[C@H]1C(=O)N[C@H](CCC(C)C)C(=O)N[C@@H](Cc1csc2ccccc12)C(=O)N[C@@H](Cc1ccccc1)C(N)=O [Compound 226, Ac-Phe-Ffa-Pro-hle-Bta-Phe-NH2] (Ac-F[Orn(2-imidazolinyl)]P[d(hLeu)][Bta]F-NH2) | 7.70 to 8.00 |
| CC(=O)N[C@@H](Cc1ccccc1)C(=O)N[C@@H](CCCNS(C)(=O)=O)C(=O)N1CCC[C@H]1C(=O)N[C@H](CC1CCCCC1)C(=O)N[C@@H](Cc1csc2ccccc12)C(=O)N[C@@H](Cc1ccccc1)C(N)=O [Compound 227, Ac-Phe-G23-Pro-cha-Bta-Phe-NH2] (Ac-F[Orn](Ms)P[dCha][Bta]F-NH2) | 6.70 to 7.30 |
| CC(=O)N[C@@H](Cc1ccccc1)C(=O)N[C@@H](Cc1ccc(NC(=N)N)cc1)C(=O)N1CCC[C@H]1C(=O)N[C@H](CC1CCCCC1)C(=O)N[C@@H](Cc1csc2ccccc12)C(=O)N[C@@H](Cc1ccccc1)C(N)=O [Compound 228, Ac-Phe-Guf-Pro-cha-Bta-Phe-NH2] (Ac-F[Phe(4-guanidino)]P[dCha][Bta]F-NH2) | 7.30 to 7.70 |
| CC(=O)N[C@@H](Cc1ccccc1)C(=O)N[C@@H](CCNC(=N)N)C(=O)N1CCC[C@H]1C(=O)N[C@H](CC1CCCCC1)C(=O)N[C@@H](Cc1csc2ccccc12)C(=O)N[C@@H](Cc1ccccc1)C(N)=O [Compound 231, Ac-Phe-L22-Pro-cha-Bta-Phe-NH2] (Ac-F[Agb]P[dCha][Bta]F-NH2) | 7.70 to 8.00 |
| CC(=O)NCCC[C@H](NC(=O)[C@H](Cc1ccccc1)NC(C)=O)C(=O)N1CCC[C@H]1C(=O)N[C@H](CC1CCCCC1)C(=O)N[C@@H](Cc1csc2ccccc12)C(=O)N[C@@H](Cc1ccccc1)C(N)=O [Compound 232, Ac-Phe-OrA-Pro-cha-Bta-Phe-NH2] (Ac-F[Orn](Ac)P[dCha][Bta]F-NH2) | 6.70 to 7.30 |
| CCN(CC)CCC[C@H](NC(=O)[C@H](Cc1ccccc1)NC(C)=O)C(=O)N1CCC[C@H]1C(=O)N[C@H](CC1CCCCC1)C(=O)N[C@@H](Cc1csc2ccccc12)C(=O)N[C@@H](Cc1ccccc1)C(N)=O [Compound 233, Ac-Phe-OrE-Pro-cha-Bta-Phe-NH2] (Ac-F[X5]P[dCha][Bta]F-NH2) | 6.70 to 7.30 |
| CC(=O)N[C@@H](Cc1ccccc1)C(=O)N[C@@H](CCCN)C(=O)N1CC[C@H]1C(=O)N[C@H](CCC(C)C)C(=O)N[C@@H](Cc1csc2ccccc12)C(=O)N[C@@H](Cc1ccccc1)C(N)=O [Compound 234, Ac-Phe-Orn-Aze-hle-Bta-Phe-NH2] (Ac-F[Orn][Aze][d(hLeu)][Bta]F-NH2) | 7.30 to 7.70 |
| CC(=O)N[C@@H](Cc1ccccc1)C(=O)N[C@@H](CCCN)C(=O)N1C[C@@H](O)C[C@H]1C(=O)N[C@H](CC1CCCCC1)C(=O)N[C@@H](Cc1csc2ccccc12)C(=O)N[C@@H](Cc1ccccc1)C(N)=O [Compound 235, Ac-Phe-Orn-Chy-cha-Bta-Phe-NH2] (Ac-F[Orn][cisHyp][dCha][Bta]F-NH2) | 6.70 to 7.30 |
| CCCN(CC(=O)N[C@H](CC1CCCCC1)C(=O)N[C@@H](Cc1csc2ccccc12)C(=O)N[C@@H](Cc1ccccc1)C(N)=O)C(=O)[C@H](CCCN)NC(=O)[C@H](Cc1ccccc1)NC(C)=O [Compound 237, Ac-Phe-Orn-G24-cha-Bta-Phe-NH2] (Ac-F[Orn][NPrGly][dCha][Bta]F-NH2) | 6.70 to 7.30 |
| CC(=O)N[C@@H](Cc1ccccc1)C(=O)N[C@@H](CCCN)C(=O)N[C@@H](CCO)C(=O)N[C@H](CC1CCCCC1)C(=O)N[C@@H](Cc1csc2ccccc12)C(=O)N[C@@H](Cc1ccccc1)C(N)=O [Compound 243, Ac-Phe-Orn-Hse-cha-Bta-Phe-NH2] (Ac-F[Orn][hSer][dCha][Bta]F-NH2) | 6.70 to 7.30 |
| CC(=O)N[C@@H](Cc1ccccc1)C(=O)N[C@@H](CCCN)C(=O)N1C[C@H](O)C[C@H]1C(=O)N[C@H](CCC(C)C)C(=O)N[C@@H](Cc1csc2ccccc12)C(=O)N[C@@H](Cc1ccccc1)C(N)=O [Compound 244, Ac-Phe-Orn-Hyp-hle-Bta-Phe-NH2] (Ac-F[Orn][Hyp][d(hLeu)][Bta]F-NH2) | 6.70 to 7.30 |
| CC(=O)N[C@@H](Cc1ccccc1)C(=O)N[C@@H](CCCN)C(=O)N(C)[C@@H](C)C(=O)N[C@H](CC1CCCCC1)C(=O)N[C@@H](Cc1csc2ccccc12)C(=O)N[C@@H](Cc1ccccc1)C(N)=O [Compound 246, Ac-Phe-Orn-NMA-cha-Bta-Phe-NH2] (Ac-F[Orn][NMeA][dCha][Bta]F-NH2) | 6.70 to 7.30 |
| CC(=O)N[C@@H](Cc1ccccc1)C(=O)N[C@@H](CCCN)C(=O)N1CCC[C@H]1C(=O)N[C@H](CC1CCCCC1)C(=O)N[C@@H](Cc1cccc2ccccc12)C(=O)N[C@@H](Cc1ccccc1)C(N)=O [Compound 248, Ac-Phe-Orn-Pro-cha-1Ni-Phe-NH2] (Ac-F[Orn]P[dCha][1Nal]F-NH2) | 6.70 to 7.30 |
| CC(=O)N[C@@H](Cc1ccccc1)C(=O)N[C@@H](CCCN)C(=O)N1CCC[C@H]1C(=O)N[C@H](CC1CCCCC1)C(=O)N[C@@H](Cc1csc2ccccc12)C(=O)N[C@@H](Cc1cccc2ccccc12)C(N)=O [Compound 249, Ac-Phe-Orn-Pro-cha-Bta-1Ni—NH2] (Ac-F[Orn]P[dCha][Bta][1Nal]-NH2) | 6.70 to 7.30 |
| CC(=O)N[C@@H](Cc1ccccc1)C(=O)N[C@@H](CCCN)C(=O)N1CCC[C@H]1C(=O)N[C@H](CC1CCCCC1)C(=O)N[C@@H](Cc1csc2ccccc12)C(=O)N[C@H](CC(N)=O)Cc1ccccc1 [Compound 250, Ac-Phe-Orn-Pro-cha-Bta-Bhf-NH2] (Ac-F[Orn]P[dCha][Bta][β3hF]-NH2) | 7.30 to 7.70 |

Source: patent US20080161232A1, “C5a Receptor Antagonist” (JERINI AG, priority 2005, published 2008)
